Substitutions are numbered along the chain they refer to.
How the values were obtained:
Format in all cases: cell-based
[1] = target: T1, GluRδ2^Lc E531A+D535A (Rattus norvegicus, UniProt Q63226, A654T/D535A/E531A); assay: Two-electrode voltage-clamp recordings in Xenopus oocytes, GluRδ2^Lc E531A+D535A
T1 sequence (Q63226 24-1007 E531A/D535A/A654T): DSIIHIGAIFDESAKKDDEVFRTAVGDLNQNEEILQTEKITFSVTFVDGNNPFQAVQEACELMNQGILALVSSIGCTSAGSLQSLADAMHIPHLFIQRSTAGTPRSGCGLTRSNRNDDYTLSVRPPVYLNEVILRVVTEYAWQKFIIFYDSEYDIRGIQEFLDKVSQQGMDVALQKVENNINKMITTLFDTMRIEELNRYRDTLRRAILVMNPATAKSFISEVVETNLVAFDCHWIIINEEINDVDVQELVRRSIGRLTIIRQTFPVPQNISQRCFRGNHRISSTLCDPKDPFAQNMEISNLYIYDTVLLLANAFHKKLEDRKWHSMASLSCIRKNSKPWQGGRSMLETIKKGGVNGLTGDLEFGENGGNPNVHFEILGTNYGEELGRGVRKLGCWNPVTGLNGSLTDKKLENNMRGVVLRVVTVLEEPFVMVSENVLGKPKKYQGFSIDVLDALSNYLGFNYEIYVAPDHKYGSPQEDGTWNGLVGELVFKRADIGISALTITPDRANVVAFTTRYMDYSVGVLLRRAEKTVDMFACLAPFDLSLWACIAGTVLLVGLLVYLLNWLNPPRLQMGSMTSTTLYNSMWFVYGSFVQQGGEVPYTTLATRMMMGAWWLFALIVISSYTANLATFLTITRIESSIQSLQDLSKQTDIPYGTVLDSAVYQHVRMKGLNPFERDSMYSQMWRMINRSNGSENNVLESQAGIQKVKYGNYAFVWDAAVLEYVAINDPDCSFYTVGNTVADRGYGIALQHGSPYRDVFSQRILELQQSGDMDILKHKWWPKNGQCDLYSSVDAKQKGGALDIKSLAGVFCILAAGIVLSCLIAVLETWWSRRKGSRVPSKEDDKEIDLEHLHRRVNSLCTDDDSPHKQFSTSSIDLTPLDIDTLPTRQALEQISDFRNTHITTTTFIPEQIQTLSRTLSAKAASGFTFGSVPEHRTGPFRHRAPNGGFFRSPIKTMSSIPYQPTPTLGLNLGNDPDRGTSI

[2] = target: T2, GluRδ2^Lc E531A+D782A (Rattus norvegicus, UniProt Q63226, A654T/D782A/E531A); assay: Two-electrode voltage-clamp recordings in Xenopus oocytes, GluRδ2^Lc E531A+D782A
T2 sequence (Q63226 24-1007 E531A/A654T/D782A): T1 sequence (Q63226 24-1007 E531A/D535A/A654T) with A512D, D759A

[3] = target: T3, GluRδ2^Lc D535A+D782A (Rattus norvegicus, UniProt Q63226, A654T/D535A/D782A); assay: Two-electrode voltage-clamp recordings in Xenopus oocytes, GluRδ2^Lc D535A+D782A
T3 sequence (Q63226 24-1007 D535A/A654T/D782A): T1 sequence (Q63226 24-1007 E531A/D535A/A654T) with A508E, D759A

| SMILES | Ca^2+ potentiation (relative to baseline) ([1]; 3 mM Ca^2+, ± SEM) | Ca^2+ potentiation (relative to baseline) ([2]; 3 mM Ca^2+, ± SEM) | Ca^2+ potentiation (relative to baseline) ([3]; 3 mM Ca^2+, ± SEM) | D-serine + 0 mM Ca^2+ nH ([1]; Hill slope, 0 mM Ca^2+) | D-serine + 3 mM Ca^2+ nH ([1]; Hill slope, 3 mM Ca^2+) | D-serine + 0 mM Ca^2+ nH ([2]; Hill slope, 0 mM Ca^2+) | D-serine + 3 mM Ca^2+ nH ([2]; Hill slope, 3 mM Ca^2+) | D-serine + 0 mM Ca^2+ nH ([3]; Hill slope, 0 mM Ca^2+) | D-serine + 3 mM Ca^2+ nH ([3]; Hill slope, 3 mM Ca^2+) |
| --- | --- | --- | --- | --- | --- | --- | --- | --- | --- |
| [Ca+2] [Ca^2+, calcium] | 1.0 ± 0.04 fold | 0.9 ± 0.04 fold | 0.6 ± 0.01 fold | – | – | – | – | – | – |
| N[C@H](CO)C(=O)O [D-serine] | – | – | – | 2.2 | 2.2 | 2.3 | 2.4 | 1.0 | 1.1 |
